In this data set the test system is HBMEC monolayer. The experiment in a line: Transwell in vitro BBB model: transport (UPLC-MS/MS) and barrier integrity. It is filed as in vitro ADME, human. The protocol:
To evaluate molecules’ BBB transport, a well-validated two-chamber BBB model, relying on the use of a microporous semipermeable membrane (Transwell insert) that separates the upper (luminal: “blood side”) and the lower (abluminal: “brain side”) chambers, was used as usual in our team. Briefly, HBMEC were seeded on polyester inserts (0.4 μm, Corning Costar Corp., New York, NY, USA) at a density of 8 × 10^4 cell/insert and treated after 8 days in culture. Inserts were coated with rat-tail collagen-I (BD Biosciences, Erembodegem, Aalst, Belgium) before seeding. Transport assays were conducted in Hank’s Balanced Salt Solution (HBSS, Gibco, Waltham, MA, USA) with calcium and magnesium, supplemented with 0.1% FBS.
Samples from upper and lower chambers were deproteinized using acetonitrile (ACN) (1:3) in ice-cold conditions, centrifuged at 15,300× g for 5 min at 4 °C and the respective supernatants were frozen until subsequent analysis.
The identification and quantification of molecules of interest were achieved by ultra-performance liquid chromatography–tandem mass spectrometry (UPLC-MS/MS) analysis using a triple quadrupole and Masslynx 4.1 software (Acquity TQ Waters). The separation of analytes was performed using a reversed-phase column Purospher STAR, RP-18 endcapped, 2 µm; Hibar HR 50-2.1 (Merck, Rahway, NJ, USA) at 35 °C, and a linear gradient (0.1% formic acid (A): ACN with 0.1% formic acid (B)) at a flow rate of 0.30 mL/min. The detection of analytes was based on electrospray ionization in the positive mode (ESI+) and acquisition in multiple reaction monitoring mode (MRM) at the following settings: ESI capillary voltage 3.0 kV, cone voltage 30 V, extractor voltage 1 V, RF lens voltage 0.1 V, desolvation gas flow 750 L/h at 350 °C, cone gas flow 50 L/h at 120 °C. Calibration curves were based on external standards using at least 8-points within the intended range, injected as duplicates. Analytes were quantified with a maximum deviation of 15% between the MRM1/MRM2 ratio. Each sample was injected in triplicate. Endothelial transport was calculated based on the ratio of lower compartment concentration and the sum of upper and lower compartments concentrations.
HBMEC monolayer integrity was ensured during BBB transport assays by TEER measurements and sodium-fluorescein paracellular permeability assessment, as previously described. TEER readings were performed using an EndOhm^TM chamber coupled to an EVOMX resistance meter (World Precision Instruments, Inc., Sarasota, FL, USA) and sodium fluorescein levels were measured using a Hitachi F-2000 fluorescence spectrophotometer.

Data on one molecule can be found in paper PMC9317902, “Multi-Targeting Approach in Glioblastoma Using Computer-Assisted Drug Discovery Tools to Overcome the Blood–Brain Barrier and Target EGFR/PI3Kp110β Signaling” (Cancers, 2022).

Consider `CCCCN1CCCc2cc(CN(CCN3CCOCC3)C(=S)Nc3cc(F)cc(F)c3)ccc21` [Mol 19], for which the “HBMEC permeability to sodium fluorescein (Pe)” value (U87MG EC50) was “no statistical differences between treated cells and control”. Besides, the “TEER of HBMEC monolayer” value (U87MG EC50, 30 min) was “None of the molecules markedly changed the TEER”. Moreover, the “endothelial transport efficiency, 30 vs. 120 min” value (UPLC-MS/MS) is “transported across the HBMEC monolayer in a time-dependent manner”. In addition, the “transport across the BBB endothelium” value (UPLC-MS/MS, 30 and 120 min) is “could be transported across the BBB endothelium”.
